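All cell lines were grown in 96-well plates and treated with compound for 48 hours. At the GI50, growth is halved. TGI: total growth inhibition.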
Key:
Experiment in all cases: NCI anticancer screen, dose series, 48 h
COLO 205 colon = test system: COLO 205 colon
HOP-62 NSCLC = test system: HOP-62 NSCLC
HT29 colon = test system: HT29 colon
IGROV1 ovarian = test system: IGROV1 ovarian
NCI-H226 lung = test system: NCI-H226 lung
OVCAR-5 ovarian = test system: OVCAR-5 ovarian
RPMI-8226 leukemia = test system: RPMI-8226 leukemia
U251 CNS = test system: U251 CNS
MALME-3M melanoma = test system: MALME-3M melanoma
HL-60(TB) leukemia = test system: HL-60(TB) leukemia

| SMILES | GI50 (COLO 205 colon) [µM] | TGI (COLO 205 colon) [µM] | GI50 (HOP-62 NSCLC) [µM] | TGI (HOP-62 NSCLC) [µM] | GI50 (HT29 colon) [µM] | TGI (HT29 colon) [µM] | GI50 (IGROV1 ovarian) [µM] | TGI (IGROV1 ovarian) [µM] | GI50 (NCI-H226 lung) [µM] | TGI (NCI-H226 lung) [µM] | GI50 (OVCAR-5 ovarian) [µM] | TGI (OVCAR-5 ovarian) [µM] | GI50 (RPMI-8226 leukemia) [µM] | TGI (RPMI-8226 leukemia) [µM] | GI50 (U251 CNS) [µM] | TGI (U251 CNS) [µM] | TGI (MALME-3M melanoma) [µM] | TGI (HL-60(TB) leukemia) [µM] | GI50 (HL-60(TB) leukemia) [µM] | GI50 (MALME-3M melanoma) [µM] |
| --- | --- | --- | --- | --- | --- | --- | --- | --- | --- | --- | --- | --- | --- | --- | --- | --- | --- | --- | --- | --- |
| Oc1ccccc1-c1nn(CNc2ccccc2Cl)c(=S)o1 | 27 | > 100 | > 100 | > 100 | 21 | 63.8 | > 100 | > 100 | > 100 | > 100 | 37.2 | > 100 | 20.2 | 59.6 | 31.4 | > 100 | – | – | – | – |
| CC(C)(Oc1ccc(/C=C/C(=O)c2ccc(Cl)cc2)cc1)C(=O)Nc1c(Cl)cccc1Cl | – | 40.2 | – | > 100 | – | 28 | – | 76.3 | – | 51.5 | – | > 100 | – | – | – | 26.7 | 40.4 | – | – | – |
| C/C(=N\NC(=O)CC#N)c1c(O)cc(C)oc1=O | – | – | – | > 100 | – | > 100 | – | > 100 | – | > 100 | – | – | – | – | – | > 100 | > 100 | > 100 | – | – |
| COC(=O)C(/C(=N\O)C(=O)Nc1cccc(Cl)c1C)c1cnc2ccccc2n1 (stereo not drawn) | – | > 100 | – | > 100 | – | > 100 | – | > 100 | – | > 100 | – | > 100 | – | – | – | > 100 | > 100 | – | – | – |
| C[N+](C)(C)CC1CCCCC1O (stereo not drawn) | – | > 100 | – | > 100 | – | > 100 | – | > 100 | – | > 100 | – | > 100 | – | > 100 | – | > 100 | – | – | – | – |
| Cn1cc(C2=C(c3cn(C4CCN(Cc5ccccn5)CC4)c4ccccc34)C(=O)NC2=O)c2ccccc21 | 3.08 | > 100 | 12.1 | 54.9 | 2.4 | > 100 | 9.7 | > 100 | – | – | > 100 | > 100 | 3.93 | > 100 | 3.74 | > 100 | > 100 | > 100 | 3.97 | > 23.4 |
| CC(=O)c1ccc(O)c(CN(C2CCCCC2)C2CCCCC2)c1O | – | > 100 | – | > 100 | – | > 100 | – | > 100 | – | > 100 | – | > 100 | – | > 100 | – | > 100 | > 100 | – | – | – |
| C=C1C[C@@H]2CC[C@@]34C[C@H]5O[C@H]6[C@@H](O3)[C@H]3O[C@H](CC[C@@H]3O[C@H]6[C@@H]5O4)CC(=O)C[C@@H]3[C@@H](OC)[C@@H](C[C@H](O)CN)O[C@H]3C[C@H]3O[C@@H](CC[C@@H]1O2)C[C@@H](C)C3=C | < 0.01 | 0.0652 | < 0.0115 | > 100 | < 0.01 | > 100 | < 0.01 | > 100 | – | – | < 0.01 | > 100 | < 0.01 | – | < 0.01 | > 100 | – | < 0.0145 | < 0.01 | – |
| COc1ccc(C(=O)NCCN(C)C)c2nc3ccccc3nc12 | – | > 26.1 | – | 9.06 | – | 15.1 | – | – | – | 16.8 | – | 16 | – | > 100 | – | 40.9 | 6.8 | – | – | – |
| Cc1ccccc1NC(=O)C1C(=O)N(c2ccccc2C)C(=O)/C1=N\NC(N)=S (stereo not drawn) | – | – | – | – | – | > 100 | – | > 100 | – | > 100 | – | – | – | > 100 | – | > 100 | > 100 | > 100 | – | – |
| C(=N\Nc1nnn(Cc2ccccc2)n1)/c1ccccc1 | 3.2 | > 59.2 | 4.77 | > 52.4 | 1.26 | > 100 | 7.05 | > 100 | 10.4 | > 100 | > 43.7 | > 96.6 | – | – | 3.47 | 24.9 | > 82.7 | 11.7 | 1.3 | 4.64 |
| O=C(/C=C/c1ccccc1)c1ccc(NCc2nc3ccccc3[nH]2)cc1 | – | 11.1 | – | 23.3 | – | 7.73 | – | 19.8 | – | 16.8 | – | 23.2 | – | – | – | 5.17 | 26.9 | > 22.3 | – | – |
| CCN(C(=O)/C=C/c1ccco1)c1ccccc1 | – | > 100 | – | > 100 | – | > 100 | – | > 100 | – | > 100 | – | > 100 | – | > 100 | – | > 100 | – | > 100 | – | – |
| CC(=O)OC(Cn1cncn1)(Cn1cncn1)c1ccc(Cl)cc1Cl | – | > 100 | – | > 100 | – | > 100 | – | > 100 | – | > 100 | – | > 100 | – | > 100 | – | > 100 | – | > 100 | – | – |
| Cc1ccc(NC(=O)c2cc(S(=O)(=O)N3C(=O)NC(=O)NS3(=O)=O)c(S)cc2Cl)cc1 | 39.8 | > 100 | 33.9 | > 100 | 42.8 | > 100 | 26.1 | 90.4 | 30.6 | 76.6 | 56.5 | > 100 | 22 | 73.6 | 27.1 | > 100 | – | – | – | – |
| Cn1c2c(c3ccccc31)CCN(CCN1CCN(c3cccc(Cl)c3)CC1)C2=O | – | > 100 | – | > 100 | – | 41 | – | > 100 | – | – | – | – | – | > 100 | – | > 100 | – | 65.3 | – | – |
| Cc1c2ccccc2cc2ccc3oc([N+](=O)[O-])cc3c12 | – | > 100 | – | > 100 | – | > 100 | – | > 100 | – | – | – | > 100 | – | > 100 | – | > 100 | > 100 | > 100 | – | – |
| CN(C)C(=S)/N=c1\ssc(=S)n1Cc1ccncc1 | – | > 100 | – | 92.2 | – | – | – | 63.3 | – | > 100 | – | > 100 | – | – | – | 39 | 50.2 | – | – | – |
| C/C(=N/NC(=O)C[N+](C)(C)C)C(CN(C)C)C(=O)Nc1ccccc1 (stereo not drawn) | – | > 100 | – | > 100 | – | > 100 | – | > 100 | – | > 100 | – | > 100 | – | – | – | > 100 | > 100 | > 100 | – | – |
| Cc1ccccc1C(=O)N1CCN(C(=O)c2ccccc2C)CC1 | – | – | – | > 100 | – | > 100 | – | > 100 | – | – | – | > 100 | – | > 100 | – | > 100 | – | > 100 | – | – |
| CC(C)(C)OC(=O)NCCCCCCCn1c2c(c3ccccc3c1=O)C(=O)c1ccccc1-2 | 63.7 | > 100 | – | – | 37.6 | > 100 | 26.9 | > 100 | 31.3 | 77.8 | > 100 | > 100 | – | – | 28.9 | 89.5 | > 100 | 40.5 | 16.4 | 37.2 |
| CCOC(=O)/C(C#N)=C\C=C(/Cl)c1ccc(Cl)cc1 | 19.1 | > 48 | 17.5 | 35.2 | 24 | > 100 | 5.78 | 27.1 | 27.4 | 83.2 | 29.7 | 59.4 | 3.71 | 29.8 | 17.6 | 32.1 | 40.5 | – | – | 18.6 |
| CCOC(=O)NC(=O)c1cn(CCN2CCN(C(=O)CCCCCCCCCCC(=O)N3CCN(CCn4cc(C(=O)NC(=O)OCC)c(=O)[nH]c4=O)CC3)CC2)c(=O)[nH]c1=O | – | > 100 | – | > 100 | – | > 100 | – | > 100 | – | > 100 | – | > 100 | – | > 100 | – | > 100 | > 100 | – | – | – |
| COC(=O)C1(C(=O)OC)CC(=O)c2cc3c(cc2-c2c(cc(OC)c(OC)c2OC)C1)OCO3 | – | > 211 | – | > 211 | – | > 211 | – | > 211 | – | > 211 | – | > 211 | – | – | – | > 211 | > 211 | > 211 | – | – |
| CC(=O)/C(=C/c1ccccc1F)C(=O)c1ccccc1 | – | > 100 | – | > 100 | – | > 100 | – | > 100 | – | > 100 | – | > 100 | – | 44.4 | – | > 100 | – | > 100 | – | – |
| N/N=C1\C(=O)N(CCc2ccccc2)C(=O)C1C(=O)NCCc1ccccc1 (stereo not drawn) | – | – | – | – | – | > 100 | – | > 100 | – | > 100 | – | – | – | > 100 | – | > 100 | > 100 | > 100 | – | – |
| N#Cc1ccc(NC(=O)C(CC(=O)OCc2ccccc2)NC(=O)OCc2ccccc2)cc1 (stereo not drawn) | > 100 | > 100 | – | – | > 100 | > 100 | > 100 | > 100 | – | – | > 100 | > 100 | > 100 | > 100 | > 100 | > 100 | > 100 | – | – | – |
| CC(=O)OCC1OC(N2C(=O)C(=O)c3ccccc32)C(OC(C)=O)C(OC(C)=O)C1OC(C)=O (stereo not drawn) | – | > 100 | – | > 100 | – | > 100 | – | > 100 | – | > 100 | – | – | – | > 100 | – | > 100 | > 100 | – | – | – |
| COc1ccc2[nH]c3c(c2c1)[C@H](C)C[C@@H]1C(=O)N(c2ccccc2)C(=O)[C@H]31 | – | > 100 | – | 52.5 | – | – | – | > 100 | – | – | – | > 100 | – | – | – | 32.4 | 79.8 | > 100 | – | – |
| Cc1c(C(=O)O)oc2ccc([N+](=O)[O-])cc12 | – | > 100 | – | > 100 | – | > 100 | – | > 100 | – | – | – | > 100 | – | – | – | > 100 | > 100 | > 100 | – | – |
